Source: patent US20260256753A1, “USE OF AN OREXIN 2 RECEPTOR AGONIST FOR IMPROVING RESPIRATORY FUNCTION DURING SLEEP” (TAKEDA PHARMACEUTICAL COMPANY LIMITED, priority 2023, published 2026)

Legend:
[1] = tested on: phrenic motoneurons; assay: Electrophysiologic recording of phrenic motoneurons in rat isolated brainstem-spinal cord preparations; format: cell-based; conditions: C3-5 ventral root, versus vehicle control, FIG. 2
Protocol: Neonatal (postnatal day 1-4) rats were decapitated, and the brainstem-spinal cord was dissected in a bath containing ACSF. The cerebellum and pons were ablated. At least 30 min prior to the start of recording, the tissue was transferred in the recording solution in which the concentration of K+ was raised to 5 mM and that of Mg2+ was decreased to 0.5 mM to ensure production of long-term and stable rhythm (modified ACSF, in mM: NaCl 125, MgCl2 0.5, KCl 5, CaCl2 1, NaHCO3 25, NaH2PO4 1.25, glucose 30, pH 7.4). The tissues were glued on coverslips and transferred to a recording chamber and continuously perfused at 27±2° C. with mACSF at a flow rate of 2.3±0.2 mL/min. Activity of phrenic motoneurons was measured in electrophysiological recordings from C3-5 ventral root, outputs of phrenic motoneurons (J. J. Greer, J. C. Smith, J. L. Feldman, Respiratory and locomotor patterns generated in the fetal rat brain stem-spinal cord in vitro, J Neurophysiol 67 (4) (1992) 996-9; J. C. Smith, J. J. Greer, G. S. Liu, J. L. Feldman, Neural mechanisms generating respiratory pattern in mammalian brain stem-spinal cord in vitro. I. Spatiotemporal patterns of motor and medullary neuron activity, J Neurophysiol 64 (4) (1990) 1149-69), using a glass suction electrode. […] The rectification and integration was used for quantification of the activities of phrenic motoneurons because the spontaneous bursts detected in voltage signals are consisting of multiple positive and negative voltages from baseline (T. Sugita, et al.). […] Bursts were then automatically detected, and burst frequency was measured.
To evaluate the effects of vehicle (0.1% DMSO) on neuronal activities, after 5 min of stabilization, the neuronal activities under basal condition were recorded for 2-20 min, followed by recording with vehicle (0.1% DMSO) for 30-40 min. […] As vehicle (0.1% DMSO) had no significant effects on burst frequency of phrenic neurons, potential of drugs was assessed under vehicle (0.1% DMSO). […]

[2] = tested on: neurons in the pre-Bötzinger complex; assay: Electrophysiologic recording of neurons in the pre-Bötzinger complex in rat medullary slices; format: cell-based; conditions: whole cell patch clamp, versus vehicle (0.1% DMSO) control, FIG. 1
From the text: (§1) Neonatal rats (postnatal day 1-10) were decapitated and the neuraxis was isolated in a chamber filled with oxygenated artificial cerebrospinal fluid solution (ACSF, in mM: NaCl 125, KCl 2.5, MgCl2 1, CaCl2 2, NaHCO3 25, NaH2PO4 1.25, glucose 25, pH 7.4). The cerebellum was removed, and the brainstem was mounted in the vibratome (VT 1000S; Leica, Milan, Italy) chamber filled with oxygenated gluconate cutting solution (in mM: Kgluconate 130, KCl 15, EGTA 0.2, HEPES 20, glucose 25, kynurenic acid 2, pH 7.4). Transverse medullary slices containing the pre-Bötzinger complex and hypoglossal nucleus were cut (400-600 μm thick). The slices were transferred at room temperature for 1 min in an oxygenated mannitol cutting solution (in mM: D-mannitol 225, glucose 25, KCl 2.5, NaH2PO4 1.25, NaHCO3 26, CaCl2 0.8, MgCl2 8, kynurenic acid 2, pH 7.4). Slices were then transferred in ACSF solution at 30° C. for 30 min and at room temperature for 30 min. At least 30 min prior to the start of recording, each slice was transferred in the recording solution in which the concentration of K+ was raised to 9 mM and that of Mg2+ was decreased to 0.5 mM to ensure the production of long-term and stable rhythm. […] Signals were acquired using Clampex 10.6 software (Axon, Molecular Devices, CA, USA) at a sampling rate of 10-20 kHz and filtered at 2-10 kHz using an 8-pole Bessel filter built within the software and analyzed using Clampfit 10.6 software (pClamp 10.6; Axon, Molecular Devices). […] Bursts were then automatically detected, and burst frequency was measured.
(§2) To evaluate the effects of vehicle (0.1% DMSO) on neuronal activities, after 5 min of stabilization, the neuronal activities under basal condition was recorded for 2-12 min, followed by recording in the presence of vehicle (0.1% DMSO) for 30 min. […]

[3] = tested on: hypoglossal motoneurons; assay: Electrophysiologic recording of hypoglossal motoneurons in rat medullary slices; format: cell-based; conditions: whole cell patch clamp, versus vehicle control, FIG. 3
From the text: as §1, §2

[4] = biological target: T1, OX2R (Homo sapiens, UniProt O43614); conditions: OX2R-expressed recombinant cells; cited from earlier work
T1 sequence (O43614 1-444): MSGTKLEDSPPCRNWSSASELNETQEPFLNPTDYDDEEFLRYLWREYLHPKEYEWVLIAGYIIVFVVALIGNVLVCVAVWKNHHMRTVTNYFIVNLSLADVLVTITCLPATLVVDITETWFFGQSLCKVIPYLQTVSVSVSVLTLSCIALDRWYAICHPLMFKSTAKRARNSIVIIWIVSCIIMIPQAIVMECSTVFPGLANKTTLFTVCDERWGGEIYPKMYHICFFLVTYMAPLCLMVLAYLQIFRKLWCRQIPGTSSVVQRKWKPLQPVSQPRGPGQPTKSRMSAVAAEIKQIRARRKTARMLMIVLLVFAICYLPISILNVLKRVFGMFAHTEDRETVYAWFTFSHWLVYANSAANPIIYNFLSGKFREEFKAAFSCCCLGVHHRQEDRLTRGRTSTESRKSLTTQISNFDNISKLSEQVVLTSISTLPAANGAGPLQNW

[5] = biological target: T1, OX2R; conditions: OX2R-expressed recombinant cells; cited from earlier work; remark: listed apart in the source

Molecule | burst frequency of phrenic motoneurons [1] | burst frequency in neurons in the pre-Bötzinger complex [2] | burst frequency of hypoglossal motoneurons [3] | calcium mobilization [4] | recruitment of β-arrestins [5]
CC(C)(O)C(=O)N1CC[C@H](NS(C)(=O)=O)[C@@H]1Cc1cccc(-c2cc(F)cc(F)c2)c1F [Compound B, N-((2S,3S)-1-(2-hydroxy-2-methylpropanoyl)-2-((2,3′,5′-trifluorobiphenyl-3-yl)methyl)pyrrolidin-3-yl) methanesulfonamide] | increased burst frequency | increased burst frequency | increased burst frequency | – | –
COc1ccc(-c2cccc(C(=O)N(C)C)c2)cc1S(=O)(=O)Nc1cccc(NCCNC(=O)c2ccccc2N(C)C)c1 [YNT-185] | – | – | – | increase calcium mobilization | promote recruitment of β-arrestins
Orexin-B: Orexin-B (OX-B) peptide | – | – | – | increase calcium mobilization | promote recruitment of β-arrestins
